Results from US11266643B2, “Triaryl compounds for treatment of PD-L1 diseases” (CHEMOCENTRYX, INC., priority 2019, dated 2022).

Molecular target: human PD-L1 (Homo sapiens (Human), UniProt Q9NZQ7)
Assay: Enzyme-Linked Immunosorbent Assay (ELISA), PD-1/PD-L1 binding
Outline: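 Plates coated with […] human PD-L1 overnight at 4° C, blocked, then 1:5 serial compound dilutions added with human PD-1 […] 0.31 μg/mL for 1 h at 37° C. Bound PD-1 detected with streptavidin-HRP and TMB (20 min, 37° C); absorbance read at 450 nm after H2SO4 stop.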

[1] = human PD-1/PD-L1 ELISA, plates coated with human PD-L1
[2] = PD-1/PD-L1 ELISA, human PD-L1 coated plates, Table 1
[3] = plate-coated human PD-L1, biotinylated Human PD-1, absorbance at 450 nm

human PD-L1, sequence (Q9NZQ7 19-239): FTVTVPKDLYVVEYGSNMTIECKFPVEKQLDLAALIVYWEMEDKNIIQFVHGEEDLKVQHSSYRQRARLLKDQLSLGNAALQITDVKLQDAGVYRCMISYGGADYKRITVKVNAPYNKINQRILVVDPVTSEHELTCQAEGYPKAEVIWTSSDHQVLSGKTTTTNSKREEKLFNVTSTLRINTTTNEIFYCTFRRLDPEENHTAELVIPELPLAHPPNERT

| IC50 [1] [nM] | IC50 [2] [nM] | SMILES | also measured |
| --- | --- | --- | --- |
| < 10 | – | COc1cc(-c2cccc(-c3cccc(NC(=O)c4c[nH]c(=O)n(C)c4=O)c3C)c2C)cc(F)c1CNC1CCNC(=O)C1 (stereo not shown) [Example 1.096] | – |
| – | < 10 | COc1cc(-c2cccc(-c3cccc(NC(=O)c4ccc(C(=O)NCC(=O)O)cn4)c3C)c2C)cc(F)c1CN [Example 1.305] | – |
| – | – | COc1cc(-c2cccc(-c3cccc(NC(=O)c4cn(C)c(=O)n(C)c4=O)c3C)c2Cl)cc(F)c1CNC1CCOCC1 [Example 2.083] | IC50 [3]: < 10 nM |
| – | < 10 | COc1cc(-c2cccc(-c3cccc(Nc4nccc5nccnc45)c3C)c2C)cc(F)c1CNCC(=O)O [Example 1.240] | – |
| – | 10 to 1000 | COc1cc(-c2cccc(-c3cccc(NC(=O)c4ccccn4)c3C)c2C)cc(F)c1CN1CCOC[C@H]1CO [Example 1.373] | – |
| < 10 | – | COc1cc(-c2cccc(-c3cccc(NC(=O)c4nc5c(s4)CNCC5)c3F)c2C)cc(F)c1CNCCCC(=O)O [Example 1.403] | – |
| < 10 | – | COc1cc(-c2cccc(-c3cccc(NC(=O)c4cn(C)c(=O)n(C)c4=O)c3C)c2C)cc(F)c1CN[C@H]1CNC(=O)C1 [Example 1.127] | – |
| – | – | COc1cc(-c2cccc(-c3cccc(NC(=O)c4cn(C)c(=O)n(C)c4=O)c3C)c2Cl)cc(F)c1CN[C@H]1CCC[C@H]1O [Example 2.053] | IC50 [3]: < 10 nM |
| – | – | COc1cc(-c2cccc(-c3cccc(NC(=O)c4cn(C)c(=O)n(C)c4=O)c3Cl)c2F)cc(F)c1CN[C@@H]1CCOC[C@@H]1O [Example 2.091] | IC50 [3]: < 10 nM |
| – | < 10 | COc1cc(-c2cccc(-c3cccc(Nc4cncc5nccnc45)c3C)c2C)cc(F)c1CN1CC(C(=O)O)C1 [Example 1.253] | – |
| – | – | COc1cc(-c2cccc(-c3cccc(Nc4nccc5nccnc45)c3C)c2Cl)cc(F)c1CN[C@@H]1COC[C@@H]1O [Example 2.115] | IC50 [3]: < 10 nM |
| < 10 | – | COc1cc(-c2cccc(-c3cccc(Nc4nccc5c4C(=O)N(C)CC5)c3C)c2C)cc(F)c1CN[C@@H]1CCC[C@@H]1O [Example 1.191] | – |
| 10 to 1000 | – | COc1cc(-c2cccc(-c3cccc(NC(=O)c4cncn(C)c4=O)c3C)c2C)cc(F)c1CN(C)C[C@H]1CCC(=O)N1 [Example 1.132] | – |
| – | < 10 | COc1cc(-c2cccc(-c3cccc(NC(=O)c4c[nH]c(=O)n(C)c4=O)c3C)c2C)cc(F)c1CN[C@H](C)CO [Example 1.225] | – |
| 10 to 1000 | – | COc1cc(-c2cccc(-c3cccc(NC(=O)c4cn(C)c(=O)n(C)c4=O)c3C)c2C)cc(F)c1CNC1CC(=O)NC1=O (stereo not shown) [Example 1.121] | – |
| < 10 | – | COc1cc(-c2cccc(-c3cccc(NC(=O)c4nn(C)c(=O)n(C)c4=O)c3C)c2C)cc(F)c1CNCCC(N)=O [Example 1.090] | – |
| – | – | COc1cc(-c2cccc(-c3cccc(NC(=O)c4cn(C)c(=O)n(C)c4=O)c3C)c2Cl)cc(F)c1CN1CCC2(CCNC2=O)C1 (stereo not shown) [Example 2.007] | IC50 [3]: < 10 nM |
| – | 10 to 1000 | COc1cc(-c2cccc(-c3cccc(NC(=O)c4ccccn4)c3C)c2C#N)cc(F)c1CN1CC(C(=O)O)C1 [Example 1.356] | – |
| – | – | CCOc1cc(-c2cccc(-c3cccc(NC(=O)c4cn(C)c(=O)n(C)c4=O)c3C)c2Cl)cc(F)c1CN[C@H]1CCC(=O)NC1 [Example 2.038] | IC50 [3]: 10 to 1000 nM |
| – | < 10 | COc1cc(-c2cccc(-c3cccc(NC(=O)c4cncn(C)c4=O)c3C)c2C)cc(F)c1CN1CCC2(C1)NC(=O)NC2=O (stereo not shown) [Example 1.269] | – |
| < 10 | – | COc1cc(-c2cccc(-c3cccc(NC(=O)c4cn(C)c(=O)n(C)c4=O)c3C)c2C)cc(F)c1CNCc1c[nH]c(=O)[nH]c1=O [Example 1.149] | – |

| IC50 [1] [nM] | IC50 [2] [nM] | SMILES | also measured |
| --- | --- | --- | --- |
| – | 10 to 1000 | COc1cc(-c2cccc(-c3cccc(NC(=O)C4CCN(CCO)CC4)c3C)c2C)cc(F)c1CNCCO [Example 1.395] | – |
| – | < 10 | COc1cc(-c2cccc(-c3cccc(Nc4nccc5nccnc45)c3C)c2C)cc(F)c1CNCCO [Example 1.238] | – |
| – | – | COc1cc(-c2cccc(-c3cccc(NC(=O)c4cn(C)c(=O)n(C)c4=O)c3C)c2Cl)cc(F)c1CN1CCC2(CCNC2=O)CC1 [Example 2.006] | IC50 [3]: 10 to 1000 nM |
| 10 to 1000 | – | COc1cc(-c2cccc(-c3cccc(NC(=O)c4cn(C)c(=O)n(C)c4=O)c3C)c2C)cc(F)c1CN(C)C[C@H]1CCC(=O)N1 [Example 1.152] | – |
| < 10 | – | COc1cc(-c2cccc(-c3cccc(NC(=O)c4c[nH]c(=O)n(C)c4=O)c3C)c2C)cc(F)c1CN[C@H]1CCOC1 [Example 1.050] | – |
| 10 to 1000 | – | COc1cc(-c2cccc(-c3cccc(Nc4nccc5nccnc45)c3C)c2F)cc(F)c1CNC[C@@H]1CCC(=O)N1 [Example 1.028] | – |
| < 10 | – | COc1cc(-c2cccc(-c3cccc(NC(=O)c4cccn(C)c4=O)c3C)c2C)cc(F)c1CN(C)CCO [Example 1.164] | – |
| 10 to 1000 | – | COc1cc(-c2cccc(-c3cccc(Nc4nccc5c4C(=O)N(C)CC5)c3C)c2C)cc(F)c1CNC[C@@H](C)O [Example 1.185] | – |
| < 10 | – | COc1cc(-c2cccc(-c3cccc(NC(=O)c4cn(C)c(=O)n(C)c4=O)c3F)c2C)cc(F)c1CNC[C@@H]1CCC(=O)N1 [Example 1.037] | – |
| – | – | COc1cc(-c2cccc(-c3cccc(NC(=O)c4cn(C)c(=O)n(C)c4=O)c3Cl)c2Cl)cc(F)c1CN[C@H]1COC[C@@H]1O [Example 2.076] | IC50 [3]: < 10 nM |
| – | – | COc1cc(-c2cccc(-c3cccc(Nc4nccc5nccnc45)c3Cl)c2Cl)cc(F)c1CN1CC(C)(C(=O)O)C1 [Example 2.109] | IC50 [3]: < 10 nM |
| – | – | COc1cc(-c2cccc(-c3cccc(NC(=O)c4cncn(C)c4=O)c3C)c2Cl)cc(F)c1CN[C@@H]1CCOC[C@@H]1O [Example 2.042] | IC50 [3]: < 10 nM |
| – | 1000 to 10000 | COc1cc(-c2cccc(-c3cccc(NC(=O)C4CCCNC4)c3C)c2C)cc(F)c1CN (stereo not shown) [Example 1.394] | – |
| – | 10 to 1000 | COc1cc(-c2cccc(-c3cccc(NC(=O)c4cccn(C)c4=O)c3C)c2C)cc(F)c1CN[C@@](C)(CO)C(=O)O [Example 1.289] | – |
| – | – | COc1cc(-c2cccc(-c3cccc(NC(=O)c4cn(C)c(=O)n(C)c4=O)c3C)c2Cl)cc(F)c1CN1CCC(C(=O)O)CC1 [Example 2.019] | IC50 [3]: < 10 nM |
| – | < 10 | COc1cc(-c2cccc(-c3cccc(NC(=O)c4c[nH]c(=O)n(C)c4=O)c3C)c2C)cc(F)c1CNC1CCOC1 (stereo not shown) [Example 1.224] | – |
| – | – | COc1cc(-c2cccc(-c3cccc(NC(=O)c4cn(C)c(=O)n(C)c4=O)c3C)c2Cl)cc(F)c1CN[C@H]1CNC(=O)C1 [Example 2.084] | IC50 [3]: < 10 nM |
| < 10 | – | COc1cc(-c2cccc(-c3cccc(NC(=O)c4cn(C)c(=O)n(C)c4=O)c3C)c2C)cc(F)c1CN[C@H]1CCC(=O)NC1 [Example 1.110] | – |
| – | – | COc1cc(-c2cccc(-c3cccc(NC(=O)c4cn(C)c(=O)n(C)c4=O)c3C)c2F)cc(F)c1CN[C@H]1CCOC[C@H]1O [Example 2.105] | IC50 [3]: < 10 nM |
| < 10 | – | COc1cc(-c2cccc(-c3cccc(NC(=O)c4c[nH]c(=O)n(C)c4=O)c3C)c2C)cc(F)c1CNCC1CCNC(=O)C1 (stereo not shown) [Example 1.071] | – |
| < 10 | – | COc1cc(-c2cccc(-c3cccc(NC(=O)c4cncn(C)c4=O)c3C)c2C)cc(F)c1CNCC1CCCNC1=O (stereo not shown) [Example 1.098] | – |

| IC50 [1] [nM] | IC50 [2] [nM] | SMILES | also measured |
| --- | --- | --- | --- |
| – | < 10 | COc1cc(-c2cccc(-c3cccc(Nc4nccc5nccnc45)c3C)c2C)cc(F)c1CNC[C@@H]1CCC(=O)N1 [Example 1.200] | – |
| – | < 10 | COc1cc(-c2cccc(-c3cccc(NC(=O)c4ccncn4)c3C)c2C)cc(F)c1CN1CC(O)C1 [Example 1.337] | – |
| < 10 | – | COc1cc(-c2cccc(-c3cccc(Nc4nccc5nccnc45)c3C)c2C)cc(F)c1CN[C@@H]1CCOC[C@@H]1O [Example 1.040] | – |
| – | 10 to 1000 | COc1cc(-c2cccc(-c3cccc(NC(=O)c4nccs4)c3C)c2C)cc(F)c1CN1CC(C(=O)O)C1 [Example 1.346] | – |
| – | < 10 | COc1cc(-c2cccc(-c3cccc(NC(=O)c4cncn(C)c4=O)c3C)c2C)cc(F)c1CNC[C@@H]1CCC(=O)N1 [Example 1.211] | – |
| – | < 10 | COc1cc(-c2cccc(-c3cccc(NC(=O)c4ccncn4)c3C)c2C)cc(F)c1CN1CC(C(=O)O)C1 [Example 1.367] | – |
| 10 to 1000 | – | COc1cc(-c2cccc(-c3cccc(Nc4nccc5nccnc45)c3Cl)c2C)cc(F)c1CNCC(C)(C)C(N)=O [Example 1.022] | – |
| – | – | COc1cc(-c2cccc(-c3cccc(NC(=O)c4cn(C)c(=O)n(C)c4=O)c3C)c2C)cc(F)c1CN1CC2(CCNC2=O)C1 [Example 2.011] | IC50 [3]: < 10 nM |
| – | 10 to 1000 | COc1cc(-c2cccc(-c3cccc(NC(=O)c4ccc(Cl)cn4)c3C)c2C)cc(F)c1CN1CC(C(=O)O)C1 [Example 1.369] | – |
| – | < 10 | COc1cc(-c2cccc(-c3cccc(NC(=O)c4ccccn4)c3C)c2C)cc(F)c1CN1CC[C@@H](C(=O)O)C1 [Example 1.366] | – |
| – | < 10 | COc1cc(-c2cccc(-c3cccc(NC(=O)c4ccccn4)c3C)c2C)cc(F)c1CN1CC(O)C1 [Example 1.388] | – |
| – | < 10 | COc1cc(-c2cccc(-c3cccc(NC(=O)c4cnc(CC(N)=O)cn4)c3C)c2C)cc(F)c1CN [Example 1.307] | – |
| – | 10 to 1000 | COc1cc(-c2cccc(-c3cccc(NC(=O)c4c[nH]c(=O)n(C)c4=O)c3C)c2C)cc(F)c1CN1CCOCC1 [Example 1.235] | – |
| – | – | COc1cc(-c2cccc(-c3cccc(NC(=O)c4cn(C)c(=O)n(C)c4=O)c3C)c2Cl)cc(F)c1CN1CCC(O)CC1 [Example 2.020] | IC50 [3]: < 10 nM |
| – | 10 to 1000 | COc1cc(-c2cccc(-c3cccc(NC(=O)c4cccnc4O)c3C)c2C)cc(F)c1CN [Example 1.297] | – |
| – | – | COc1cc(-c2cccc(-c3cccc(NC(=O)c4cn(C)c(=O)n(C)c4=O)c3C)c2Cl)cc(F)c1CN(C)C1CCOCC1 [Example 2.069] | IC50 [3]: < 10 nM |
| – | 10 to 1000 | COc1cc(-c2cccc(-c3cccc(NC(=O)c4ccccn4)c3C)c2C)cc(F)c1CN1CCCC[C@H]1C(=O)O [Example 1.380] | – |
| < 10 | – | COc1cc(-c2cccc(-c3cccc(NC(=O)c4nn(C)c(=O)n(C)c4=O)c3C)c2C)cc(F)c1CNCCN1CCCC1=O [Example 1.092] | – |
| < 10 | – | COc1cc(-c2cccc(-c3cccc(NC(=O)c4cn(C)c(=O)n(C)c4=O)c3C)c2C)cc(F)c1CN(C)[C@@H]1CNC(=O)C1 [Example 1.148] | – |
